Source: patent US11304918B2, “Methods and compositions for the treatment of diverticulosis” (Emmaus Medical, Inc., priority 2011, dated 2022)

Tested on: diverticula
Assay: Number of diverticula observed by colonoscopy in a person with diverticulosis ingesting L-glutamine
Format: in vivo
Details: one person, 30 g of L-glutamine per day as an aqueous solution, ingested, after twelve months
Description: Compositions according to the present invention may be used to treat diverticulosis as determined by a number of different methods to image colon pouches. Nonlimiting examples of imaging methods include: colonoscopy; computed tomography; and, x-ray based on a barium enema. […] The person ingested 30 g of L-glutamine per day as an aqueous solution. After twelve months of L-glutamine administration, the number of diverticula had been reduced by ninety (90) percent.

NC(=O)CC[C@H](N)C(=O)O [L-glutamine]
reduction of the number of diverticula: 90%
